ChEMBL document CHEMBL3431459, “Roche carnitine palmitoyltransferase modulator screening data (supplementary data associated with the publication CHEMBL2216752)”
In brackets after ≈: the same amount, converted by molar mass.

What was measured:
[1] = SUPPLEMENTARY: Lyophilisation Solubility Assay (LYSA); type: physicochemical; details: read-out: Kinetic_solubility
[2] = biological target: T1, Carnitine O-palmitoyltransferase 2, mitochondrial (Rattus norvegicus, UniProt P18886); experiment: (§1) SUPPLEMENTARY: Inhibition of Carnitine palmitoyltransferase 2
T1 sequence (P18886 whole entry): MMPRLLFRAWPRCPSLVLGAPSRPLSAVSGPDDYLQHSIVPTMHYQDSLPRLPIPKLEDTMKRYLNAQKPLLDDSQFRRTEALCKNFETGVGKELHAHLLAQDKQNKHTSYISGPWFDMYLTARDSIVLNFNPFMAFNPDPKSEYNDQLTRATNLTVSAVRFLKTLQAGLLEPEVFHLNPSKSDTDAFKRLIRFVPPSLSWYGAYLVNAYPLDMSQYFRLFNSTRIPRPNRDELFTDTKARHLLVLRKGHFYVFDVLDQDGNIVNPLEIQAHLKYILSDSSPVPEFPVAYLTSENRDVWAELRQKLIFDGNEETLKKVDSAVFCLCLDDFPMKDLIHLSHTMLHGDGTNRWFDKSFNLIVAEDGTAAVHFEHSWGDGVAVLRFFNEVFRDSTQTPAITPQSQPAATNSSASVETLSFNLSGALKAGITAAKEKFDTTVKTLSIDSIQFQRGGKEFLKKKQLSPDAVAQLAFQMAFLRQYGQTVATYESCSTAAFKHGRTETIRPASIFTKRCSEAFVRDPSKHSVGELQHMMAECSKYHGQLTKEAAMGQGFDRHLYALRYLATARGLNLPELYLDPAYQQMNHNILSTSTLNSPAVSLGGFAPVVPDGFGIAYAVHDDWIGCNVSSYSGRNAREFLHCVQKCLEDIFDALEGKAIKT

[3] = biological target: T2, Carnitine O-palmitoyltransferase 2, mitochondrial (Homo sapiens, UniProt P23786); experiment: as §1
T2 sequence (P23786 whole entry): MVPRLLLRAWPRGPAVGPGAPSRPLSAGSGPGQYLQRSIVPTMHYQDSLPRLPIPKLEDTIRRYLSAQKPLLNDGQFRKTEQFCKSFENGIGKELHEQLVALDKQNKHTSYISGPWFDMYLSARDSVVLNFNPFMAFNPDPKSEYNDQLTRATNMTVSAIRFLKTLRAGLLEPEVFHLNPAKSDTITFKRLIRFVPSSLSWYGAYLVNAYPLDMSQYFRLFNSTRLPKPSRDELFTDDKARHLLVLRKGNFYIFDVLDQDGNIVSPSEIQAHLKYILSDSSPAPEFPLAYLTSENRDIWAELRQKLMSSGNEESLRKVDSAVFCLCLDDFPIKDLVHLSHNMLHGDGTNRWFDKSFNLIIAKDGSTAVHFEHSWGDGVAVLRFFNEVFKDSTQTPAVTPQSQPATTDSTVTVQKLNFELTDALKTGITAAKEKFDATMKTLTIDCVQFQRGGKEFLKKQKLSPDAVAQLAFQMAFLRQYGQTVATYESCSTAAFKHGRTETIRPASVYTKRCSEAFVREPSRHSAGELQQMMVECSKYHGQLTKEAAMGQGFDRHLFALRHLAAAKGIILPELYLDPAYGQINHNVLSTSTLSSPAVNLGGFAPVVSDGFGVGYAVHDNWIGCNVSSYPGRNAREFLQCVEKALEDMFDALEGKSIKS

[4] = biological target: T3, Carnitine O-palmitoyltransferase 1, liver isoform (Homo sapiens, UniProt P50416); experiment: (§2) SUPPLEMENTARY: Inhibition of Carnitine palmitoyltransferase 1, liver isoform
T3 sequence (P50416 whole entry): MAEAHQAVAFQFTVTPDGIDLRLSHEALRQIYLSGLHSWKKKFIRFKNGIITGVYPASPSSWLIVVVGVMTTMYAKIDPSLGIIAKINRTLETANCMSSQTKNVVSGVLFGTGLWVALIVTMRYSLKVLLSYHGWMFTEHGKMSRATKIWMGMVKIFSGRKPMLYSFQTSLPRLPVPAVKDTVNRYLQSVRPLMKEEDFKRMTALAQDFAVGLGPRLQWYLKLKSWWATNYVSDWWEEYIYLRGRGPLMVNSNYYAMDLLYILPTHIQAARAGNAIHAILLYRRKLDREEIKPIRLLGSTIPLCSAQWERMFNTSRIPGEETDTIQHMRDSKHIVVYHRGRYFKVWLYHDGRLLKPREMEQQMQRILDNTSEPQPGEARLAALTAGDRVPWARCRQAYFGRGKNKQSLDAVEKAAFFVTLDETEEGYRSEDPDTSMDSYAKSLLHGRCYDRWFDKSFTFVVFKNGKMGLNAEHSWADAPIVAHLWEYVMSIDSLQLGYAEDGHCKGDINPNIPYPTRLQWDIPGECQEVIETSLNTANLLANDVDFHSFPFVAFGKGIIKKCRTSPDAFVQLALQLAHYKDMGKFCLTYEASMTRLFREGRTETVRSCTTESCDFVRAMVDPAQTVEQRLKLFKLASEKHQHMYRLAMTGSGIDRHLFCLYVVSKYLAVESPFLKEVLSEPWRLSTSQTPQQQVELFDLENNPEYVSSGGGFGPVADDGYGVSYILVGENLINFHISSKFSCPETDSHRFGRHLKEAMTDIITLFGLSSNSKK

[5] = biological target: T4, Carnitine O-palmitoyltransferase 1, liver isoform (Rattus norvegicus, UniProt P32198); experiment: as §2
T4 sequence (P32198 whole entry): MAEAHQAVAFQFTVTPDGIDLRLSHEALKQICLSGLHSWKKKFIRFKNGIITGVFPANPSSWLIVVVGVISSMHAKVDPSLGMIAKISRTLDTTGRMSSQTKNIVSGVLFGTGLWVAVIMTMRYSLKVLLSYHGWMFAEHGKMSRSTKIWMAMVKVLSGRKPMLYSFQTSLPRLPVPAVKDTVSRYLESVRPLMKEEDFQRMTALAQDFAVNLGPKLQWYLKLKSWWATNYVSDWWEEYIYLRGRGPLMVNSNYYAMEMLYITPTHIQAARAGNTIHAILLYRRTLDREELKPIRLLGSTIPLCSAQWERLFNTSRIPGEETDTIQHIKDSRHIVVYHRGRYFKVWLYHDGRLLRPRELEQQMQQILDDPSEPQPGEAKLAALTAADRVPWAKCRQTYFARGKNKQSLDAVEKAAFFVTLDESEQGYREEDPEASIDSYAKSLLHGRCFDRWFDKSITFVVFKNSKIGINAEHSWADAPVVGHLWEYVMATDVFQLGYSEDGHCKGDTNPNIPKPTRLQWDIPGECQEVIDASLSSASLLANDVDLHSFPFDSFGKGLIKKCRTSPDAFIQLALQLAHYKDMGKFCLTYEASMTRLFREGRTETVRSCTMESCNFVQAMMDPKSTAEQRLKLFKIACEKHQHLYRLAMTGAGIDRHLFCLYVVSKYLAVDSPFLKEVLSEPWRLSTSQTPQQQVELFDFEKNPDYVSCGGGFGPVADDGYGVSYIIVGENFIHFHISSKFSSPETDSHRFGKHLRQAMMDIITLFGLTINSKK

[6] = SUPPLEMENTARY: Lipophilicity (log D) Determination by high-throughput shake-flask; type: physicochemical; details: octanol/water
[7] = biological target: T5, Carnitine O-palmitoyltransferase 1, muscle isoform (Homo sapiens, UniProt Q92523); experiment: SUPPLEMENTARY: Inhibition of Carnitine palmitoyltransferase 1, muscle isoform; set-up: species or system Muscle tissue
T5 sequence (Q92523 whole entry): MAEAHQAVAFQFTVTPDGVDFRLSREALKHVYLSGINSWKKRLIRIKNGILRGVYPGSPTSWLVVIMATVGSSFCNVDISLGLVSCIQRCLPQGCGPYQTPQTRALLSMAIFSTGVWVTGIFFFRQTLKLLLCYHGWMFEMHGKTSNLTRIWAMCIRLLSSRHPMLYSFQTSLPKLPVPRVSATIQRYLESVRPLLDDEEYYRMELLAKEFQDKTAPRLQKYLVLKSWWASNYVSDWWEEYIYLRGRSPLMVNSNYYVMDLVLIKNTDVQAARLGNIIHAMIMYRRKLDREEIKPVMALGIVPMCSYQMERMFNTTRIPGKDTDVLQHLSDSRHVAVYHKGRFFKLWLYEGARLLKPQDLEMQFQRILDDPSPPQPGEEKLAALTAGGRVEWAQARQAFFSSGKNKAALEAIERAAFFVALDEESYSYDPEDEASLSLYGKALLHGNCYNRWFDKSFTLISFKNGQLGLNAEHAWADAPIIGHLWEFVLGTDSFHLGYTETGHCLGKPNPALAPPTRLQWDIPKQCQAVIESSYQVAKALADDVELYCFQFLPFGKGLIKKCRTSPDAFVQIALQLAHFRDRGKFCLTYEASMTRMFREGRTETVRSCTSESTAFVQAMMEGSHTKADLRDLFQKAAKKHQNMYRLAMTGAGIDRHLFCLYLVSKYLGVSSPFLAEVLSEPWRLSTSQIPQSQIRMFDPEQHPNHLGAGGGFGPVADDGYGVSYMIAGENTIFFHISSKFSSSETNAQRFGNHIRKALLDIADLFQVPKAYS

[8] = SUPPLEMENTARY: PAMPA permeability assay; type: physicochemical; details: read-out: Permeability

| solubility kinetic [1] [µg/mL] | IC50 [2] [µM] | IC50 [3] [µM] | IC50 [4] [µM] | IC50 [5] [µM] | logD [6] | IC50 [7] [µM] | Papp [8] [×10⁻⁶ cm/s] | Structure (SMILES) |
| --- | --- | --- | --- | --- | --- | --- | --- | --- |
| 10 (≈ 23 µM) | > 100 | 18 | 0.0557 | 0.0694 | 3.04 | 80.8 | 3.91 | O=C1COc2ccc(-c3noc([C@H]4CCCCN4C(=O)COc4ccccc4)n3)cc2N1 |
| 34 (≈ 63.6 µM) | 55.6 | 2.53 | 0.0941 | 0.0368 | -0.34 | 17.2 | 0.12 | COc1ccc(Cl)cc1S(=O)(=O)N1CC[S+]([O-])c2ccc(C(=O)Nc3ccc(C(=O)O)cc3)cc21 (configuration not stated) |
| 23 (≈ 53.1 µM) | > 100 | 21.2 | 0.0941 | 0.458 | 2.38 | > 100 | 1.83 | O=C1CNc2ccc(-c3nc([C@H]4CCCCN4C(=O)COc4ccccc4)no3)cc2N1 |
| 417 (≈ 778 µM) | > 100 | > 100 | 0.219 | 0.0898 | -0.29 | 9.62 | 0.85 | COc1ccc(Cl)cc1CN1C(=O)CS(=O)(=O)c2ccc(C(=O)Nc3nc(CC(=O)O)cs3)cc21 |
| 62 (≈ 143 µM) | 82.8 | 49 | 0.121 | 0.0616 | 2.57 | 94.2 | 0.95 | O=C1COc2ccc(-c3n[nH]c([C@H]4CCCCN4C(=O)COc4ccccc4)n3)cc2N1 |
| 181 (≈ 414 µM) | > 100 | > 100 | 0.332 | 0.312 | 2.5 | > 100 | 4.32 | CC(=O)Nc1ccc(F)c(-c2n[nH]c([C@H]3CCCCN3C(=O)COc3ccccc3)n2)c1 |
| 33 (≈ 84.7 µM) | 79.2 | 7.28 | 0.166 | 0.247 | 2.54 | > 100 | 8.44 | N#Cc1ccc(-c2nc([C@H]3CCCCN3C(=O)COc3ccccc3)no2)cn1 |
| 46 (≈ 110 µM) | 7.63 | 6.26 | 0.0998 | 0.0931 | 2.53 | 7.62 | 6.44 | O=C(COc1ccccc1)N1CCCC[C@@H]1c1noc(-c2cccc3[nH][nH]c(=O)c23)n1 |
| 61 (≈ 161 µM) | > 100 | 42.7 | 0.11 | 0.372 | 2.47 | > 100 | 4.86 | Nc1cc(-c2nc([C@H]3CCCCN3C(=O)COc3ccccc3)no2)ccn1 |
| 26 (≈ 51.1 µM) | > 100 | > 100 | 0.147 | 0.0419 | 0.51 | 2.33 | 1.71 | COc1ccc(Cl)cc1CN1C(=O)OC(C)(C)c2ccc(C(=O)Nc3ccc(CC(=O)O)cc3)cc21 |
| 37 (≈ 84.6 µM) | > 100 | > 100 | 0.0264 | 0.0656 | 3.22 | > 100 | 1.69 | CC(=O)Nc1cc(F)cc(-c2n[nH]c([C@H]3CCCCN3C(=O)COc3ccccc3)n2)c1 |
| 121 (≈ 277 µM) | > 100 | 45.9 | 0.0795 | 0.375 | 2.43 | > 100 | 2.67 | CC(=O)Nc1cc(-c2n[nH]c([C@H]3CCCCN3C(=O)COc3ccccc3)n2)ccc1F |
| < 1 | > 100 | > 100 | 0.123 | 0.131 | 3.62 | > 100 | 1.35 | CC(=O)Nc1cc(F)cc(-c2noc([C@H]3CCCCN3C(=O)COc3ccccc3)n2)c1 |
| 18 (≈ 41.1 µM) | > 100 | > 100 | 0.0279 | 0.146 | 3 | > 100 | 2.17 | CC(=O)Nc1cc(-c2noc([C@H]3CCCCN3C(=O)COc3ccccc3)n2)ccc1F |
